In ChEMBL document CHEMBL5303573, “Mapping human microbiome drug metabolism by gut bacteria and their genes” (Nature, 2019):

Legend:
[1] = The drug is tested on Collinsella aerofaciens strain: ATCC25986 for biotransformation. The drug concentrations were measured before and after a 12-h incubation by liquid-chromatography-coupled mass spectrometry (LC–MS); conditions: 2 µM
[2] = The drug is tested on Eubacterium rectale strain: ATCC33656 for biotransformation. The drug concentrations were measured before and after a 12-h incubation by liquid-chromatography-coupled mass spectrometry (LC–MS); conditions: agathobacter rectalis, 2 µM
[3] = anaerostipes sp., 12 h, 2 µM
Description: The drug is tested on Anaerostipes sp. strain: fecal isolate for biotransformation. The drug concentrations were measured before and after a 12-h incubation by liquid-chromatography-coupled mass spectrometry (LC–MS)

[4] = bacteroides thetaiotaomicron, 12 h, 2 µM
Description: The drug is tested on Bacteroides thetaiotaomicron strain: VPI-5482 for biotransformation. The drug concentrations were measured before and after a 12-h incubation by liquid-chromatography-coupled mass spectrometry (LC–MS)

[5] = The drug is tested on Bacteroides xylanisolvens strain: DSM18836 for biotransformation. The drug concentrations were measured before and after a 12-h incubation by liquid-chromatography-coupled mass spectrometry (LC–MS); conditions: 2 µM
[6] = The drug is tested on Parabacteroides merdae strain: ATCC43184 for biotransformation. The drug concentrations were measured before and after a 12-h incubation by liquid-chromatography-coupled mass spectrometry (LC–MS); conditions: 2 µM
[7] = The drug is tested on Bacteroides fragilis strain: HMW615 for biotransformation. The drug concentrations were measured before and after a 12-h incubation by liquid-chromatography-coupled mass spectrometry (LC–MS); conditions: 2 µM
[8] = The drug is tested on Bifidobacterium longum subsp. Infantis strain: CCUG52486 for biotransformation. The drug concentrations were measured before and after a 12-h incubation by liquid-chromatography-coupled mass spectrometry (LC–MS); conditions: 2 µM
[9] = The drug is tested on Bifidobacterium breve strain: DSM20213 for biotransformation. The drug concentrations were measured before and after a 12-h incubation by liquid-chromatography-coupled mass spectrometry (LC–MS); conditions: 2 µM
[10] = The drug is tested on Bifidobacterium ruminantium strain: fecal isolate for biotransformation. The drug concentrations were measured before and after a 12-h incubation by liquid-chromatography-coupled mass spectrometry (LC–MS); conditions: 2 µM
[11] = The drug is tested on Enterococcus faecalis strain: V583 for biotransformation. The drug concentrations were measured before and after a 12-h incubation by liquid-chromatography-coupled mass spectrometry (LC–MS); conditions: 2 µM
[12] = The drug is tested on Bacteroides uniformis strain: ATCC8492 for biotransformation. The drug concentrations were measured before and after a 12-h incubation by liquid-chromatography-coupled mass spectrometry (LC–MS); conditions: 2 µM
[13] = The drug is tested on Clostridium scindens strain: ATCC35704 for biotransformation. The drug concentrations were measured before and after a 12-h incubation by liquid-chromatography-coupled mass spectrometry (LC–MS); conditions: 2 µM
[14] = The drug is tested on Bacteroides cellulosilyticus strain: DSM14838 for biotransformation. The drug concentrations were measured before and after a 12-h incubation by liquid-chromatography-coupled mass spectrometry (LC–MS); conditions: 2 µM
[15] = The drug is tested on Blautia hansenii strain: DSM20583 for biotransformation. The drug concentrations were measured before and after a 12-h incubation by liquid-chromatography-coupled mass spectrometry (LC–MS); conditions: 2 µM
[16] = The drug is tested on Anaerotruncus colihominis strain: DSM17241 for biotransformation. The drug concentrations were measured before and after a 12-h incubation by liquid-chromatography-coupled mass spectrometry (LC–MS); conditions: 2 µM
[17] = The drug is tested on Bacteroides dorei strain: DSM17855 for biotransformation. The drug concentrations were measured before and after a 12-h incubation by liquid-chromatography-coupled mass spectrometry (LC–MS); conditions: phocaeicola dorei, 2 µM
[18] = The drug is tested on Blautia luti strain: DSM14534 for biotransformation. The drug concentrations were measured before and after a 12-h incubation by liquid-chromatography-coupled mass spectrometry (LC–MS); format: ADME; parameters: dose 2 uM, timepoint 0 vs 12 hours; conditions: 2 µM
[19] = The drug is tested on Collinsella intestinalis strain: DSM13280 for biotransformation. The drug concentrations were measured before and after a 12-h incubation by liquid-chromatography-coupled mass spectrometry (LC–MS); conditions: 2 µM
[20] = The drug is tested on Providencia stuartii strain: ATCC25827 for biotransformation. The drug concentrations were measured before and after a 12-h incubation by liquid-chromatography-coupled mass spectrometry (LC–MS); conditions: 2 µM

Row | SMILES | Bacterial Biotransformation [1] | Bacterial Biotransformation [2] | Bacterial Biotransformation [3] | Bacterial Biotransformation [4] | Bacterial Biotransformation [5] | Bacterial Biotransformation [6] | Bacterial Biotransformation [7] | Bacterial Biotransformation [8] | Bacterial Biotransformation [9] | Bacterial Biotransformation [10] | Bacterial Biotransformation [11] | Bacterial Biotransformation [12] | Bacterial Biotransformation [13] | Bacterial Biotransformation [14] | Bacterial Biotransformation [15] | Bacterial Biotransformation [16] | Bacterial Biotransformation [17] | Bacterial Biotransformation [18] | Bacterial Biotransformation [19] | Bacterial Biotransformation [20]
1 | CC(=O)OCC(=O)[C@@]1(OC(C)=O)[C@@H](C)C[C@H]2[C@@H]3C[C@H](F)C4=CC(=O)C=C[C@]4(C)[C@@]3(F)[C@@H](O)C[C@@]21C [DIFLORASONE DIACETATE] | Compound metabolized | Compound NOT metabolized | Compound metabolized | Compound metabolized | Compound metabolized | Compound metabolized | Compound metabolized | Compound metabolized | Compound NOT metabolized | Compound metabolized | Compound NOT metabolized | Compound metabolized | Compound NOT metabolized | Compound metabolized | Compound metabolized | Compound metabolized | Compound metabolized | Compound metabolized | Compound NOT metabolized | –
2 | CN(C)CCC=C1c2ccccc2COc2ccccc21 [DOXEPIN] | Compound NOT metabolized | Compound NOT metabolized | Compound NOT metabolized | Compound NOT metabolized | – | Compound NOT metabolized | Compound NOT metabolized | Compound NOT metabolized | Compound NOT metabolized | Compound NOT metabolized | Compound NOT metabolized | Compound NOT metabolized | Compound NOT metabolized | Compound NOT metabolized | Compound NOT metabolized | Compound NOT metabolized | Compound NOT metabolized | Compound NOT metabolized | Compound NOT metabolized | Compound NOT metabolized
3 | CN1CCN(C(=O)O[C@H]2c3nccnc3C(=O)N2c2ccc(Cl)cn2)CC1 [ESZOPICLONE] | Compound metabolized | Compound NOT metabolized | Compound NOT metabolized | Compound NOT metabolized | Compound NOT metabolized | – | Compound NOT metabolized | Compound metabolized | Compound NOT metabolized | Compound NOT metabolized | Compound NOT metabolized | Compound NOT metabolized | Compound NOT metabolized | Compound metabolized | Compound NOT metabolized | Compound metabolized | Compound NOT metabolized | Compound NOT metabolized | Compound NOT metabolized | Compound NOT metabolized
4 | OCCN1CCN(CCCN2c3ccccc3Sc3ccc(C(F)(F)F)cc32)CC1 [FLUPHENAZINE] | Compound NOT metabolized | Compound metabolized | Compound metabolized | Compound metabolized | Compound metabolized | Compound NOT metabolized | Compound NOT metabolized | Compound NOT metabolized | Compound NOT metabolized | Compound NOT metabolized | Compound NOT metabolized | Compound metabolized | Compound NOT metabolized | Compound metabolized | Compound NOT metabolized | – | Compound metabolized | Compound NOT metabolized | Compound NOT metabolized | –
5 | COCCCC/C(=N\OCCN)c1ccc(C(F)(F)F)cc1.O=C(O)/C=C\C(=O)O [FLUVOXAMINE MALEATE] | Compound NOT metabolized | Compound NOT metabolized | Compound NOT metabolized | Compound metabolized | Compound NOT metabolized | – | Compound NOT metabolized | Compound NOT metabolized | Compound NOT metabolized | Compound metabolized | Compound NOT metabolized | Compound NOT metabolized | Compound NOT metabolized | Compound NOT metabolized | Compound metabolized | Compound NOT metabolized | Compound NOT metabolized | Compound NOT metabolized | – | Compound NOT metabolized
6 | CC(=O)O[C@]1(C(C)=O)CC[C@H]2[C@@H]3C=C(C)C4=CC(=O)CC[C@]4(C)[C@H]3CC[C@@]21C [MEGESTROL ACETATE] | Compound metabolized | Compound NOT metabolized | Compound NOT metabolized | – | Compound metabolized | Compound metabolized | Compound metabolized | Compound NOT metabolized | Compound NOT metabolized | Compound metabolized | Compound NOT metabolized | Compound metabolized | Compound metabolized | Compound NOT metabolized | Compound metabolized | Compound NOT metabolized | Compound metabolized | – | Compound NOT metabolized | Compound metabolized
7 | CN1CCN2c3ccccc3Cc3ccccc3C2C1 (stereo not drawn) [MIANSERIN] | Compound NOT metabolized | Compound NOT metabolized | Compound NOT metabolized | – | – | Compound NOT metabolized | Compound NOT metabolized | Compound NOT metabolized | Compound NOT metabolized | Compound NOT metabolized | Compound NOT metabolized | Compound NOT metabolized | Compound NOT metabolized | Compound NOT metabolized | Compound NOT metabolized | Compound NOT metabolized | Compound NOT metabolized | Compound NOT metabolized | Compound NOT metabolized | Compound NOT metabolized
8 | C#C[C@]1(OC(C)=O)CC[C@H]2[C@@H]3CCC4=CC(=O)CC[C@@H]4[C@H]3CC[C@@]21C [NORETHINDRONE ACETATE] | Compound metabolized | Compound metabolized | Compound metabolized | Compound metabolized | Compound metabolized | Compound metabolized | Compound metabolized | Compound NOT metabolized | Compound NOT metabolized | Compound NOT metabolized | Compound NOT metabolized | Compound metabolized | Compound NOT metabolized | Compound metabolized | Compound metabolized | Compound metabolized | Compound metabolized | Compound metabolized | Compound metabolized | –
